Measurements: ChEMBL document CHEMBL5465560, “Selectivity Literature for EUbOPEN Chemogenomic Library” (2024)

How the values were obtained:
[1] = molecular target: Mitogen-activated protein kinase kinase kinase 21 (Homo sapiens) (UniProt Q5TCX8); test: Selectivity interaction (Kinase panel (KiNativ target engagement assay in Jurkat cells)) EUB0001635a MAP3K21; format: cell-based; details: Selectivity number of off-targets 0.0, Selectivity number of targets 233.0, Source Knowledge https://www.sciencedirect.com/science/article/pii/S2451945619300674?via%3Dihub, at 1 µM
[2] = molecular target: T1, Rhodopsin kinase GRK7 (Homo sapiens) (UniProt Q8WTQ7); test: Selectivity interaction (KinomeScan (DiscoverX)) EUB0000595a GRK7; details: at 10 µM
T1 sequence (whole entry): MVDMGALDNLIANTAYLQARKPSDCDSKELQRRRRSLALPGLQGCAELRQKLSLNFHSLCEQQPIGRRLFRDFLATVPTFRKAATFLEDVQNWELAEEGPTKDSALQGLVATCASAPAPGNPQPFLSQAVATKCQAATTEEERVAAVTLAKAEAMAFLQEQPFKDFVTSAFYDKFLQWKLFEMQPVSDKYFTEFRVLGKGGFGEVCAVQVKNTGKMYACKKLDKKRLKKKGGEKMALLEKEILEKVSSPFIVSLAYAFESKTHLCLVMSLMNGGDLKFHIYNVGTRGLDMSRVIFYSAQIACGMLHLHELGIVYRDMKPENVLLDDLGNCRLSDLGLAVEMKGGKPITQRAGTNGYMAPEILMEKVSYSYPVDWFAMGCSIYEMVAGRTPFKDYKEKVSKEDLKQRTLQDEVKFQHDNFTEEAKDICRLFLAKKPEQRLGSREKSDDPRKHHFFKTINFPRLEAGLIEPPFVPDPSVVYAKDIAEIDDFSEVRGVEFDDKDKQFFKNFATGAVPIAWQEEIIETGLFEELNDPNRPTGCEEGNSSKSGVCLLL

[3] = molecular target: Tyrosine-protein kinase FRK (Homo sapiens) (UniProt P42685); test: Selectivity interaction (KinomeScan (DiscoverX)) EUB0001079a FRK; details: at 1 µM
[4] = molecular target: T2, Serine/threonine-protein kinase TAO2 (Homo sapiens) (UniProt Q9UL54); details: at 10 µM
T2 sequence (whole entry): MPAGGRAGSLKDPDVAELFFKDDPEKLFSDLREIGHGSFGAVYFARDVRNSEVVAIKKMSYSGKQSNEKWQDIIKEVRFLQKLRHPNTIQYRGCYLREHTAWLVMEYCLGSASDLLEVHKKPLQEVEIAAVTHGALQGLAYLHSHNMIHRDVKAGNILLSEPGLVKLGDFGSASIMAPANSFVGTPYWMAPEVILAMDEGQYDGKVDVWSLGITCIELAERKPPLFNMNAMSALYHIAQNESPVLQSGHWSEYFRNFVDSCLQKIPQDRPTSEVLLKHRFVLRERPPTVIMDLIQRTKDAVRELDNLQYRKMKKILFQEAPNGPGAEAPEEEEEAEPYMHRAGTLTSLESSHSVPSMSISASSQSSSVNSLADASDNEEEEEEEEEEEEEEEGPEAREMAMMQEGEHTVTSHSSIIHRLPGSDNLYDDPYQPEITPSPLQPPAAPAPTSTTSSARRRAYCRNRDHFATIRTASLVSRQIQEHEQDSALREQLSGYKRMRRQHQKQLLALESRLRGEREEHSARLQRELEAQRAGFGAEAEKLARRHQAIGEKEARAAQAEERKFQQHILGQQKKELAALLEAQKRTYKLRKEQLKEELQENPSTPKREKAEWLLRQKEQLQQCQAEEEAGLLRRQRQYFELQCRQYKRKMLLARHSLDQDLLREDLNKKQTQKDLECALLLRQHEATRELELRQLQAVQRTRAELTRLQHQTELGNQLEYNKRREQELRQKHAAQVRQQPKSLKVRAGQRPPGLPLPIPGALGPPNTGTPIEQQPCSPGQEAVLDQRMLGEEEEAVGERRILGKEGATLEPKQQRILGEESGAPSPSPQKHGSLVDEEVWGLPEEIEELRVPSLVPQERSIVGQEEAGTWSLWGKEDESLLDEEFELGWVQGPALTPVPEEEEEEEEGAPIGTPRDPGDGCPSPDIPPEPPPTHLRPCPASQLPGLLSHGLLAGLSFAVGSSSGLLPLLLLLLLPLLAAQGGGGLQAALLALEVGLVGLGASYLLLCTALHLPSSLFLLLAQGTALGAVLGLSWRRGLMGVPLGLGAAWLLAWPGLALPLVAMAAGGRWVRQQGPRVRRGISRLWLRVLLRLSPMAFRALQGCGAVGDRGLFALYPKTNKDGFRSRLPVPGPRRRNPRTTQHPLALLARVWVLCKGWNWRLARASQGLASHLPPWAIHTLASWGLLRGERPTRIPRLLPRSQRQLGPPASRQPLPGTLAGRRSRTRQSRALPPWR

[5] = molecular target: Melanocortin receptor 4 (Homo sapiens) (UniProt P32245); test: Selectivity interaction (Eurofins CEREP Diversity Profile (receptors and ion channels)) EUB0000279b MC4R; details: at 10 µM
[6] = tested on: Tyrosine-protein kinase ABL1 (Homo sapiens), P00519 [E255K]; test: (§1) Selectivity interaction (KinomeScan (DiscoverX)) EUB0001049a ABL1; details: at 1 µM
[7] = tested on: Tyrosine-protein kinase ABL1 (Homo sapiens), P00519 [F317I]; test: as §1; details: at 1 µM
[8] = tested on: Tyrosine-protein kinase ABL1 (Homo sapiens), P00519 [F317L]; test: as §1; details: at 1 µM
[9] = tested on: Tyrosine-protein kinase ABL1 (Homo sapiens), P00519 [H396P]; test: as §1; details: at 1 µM
[10] = tested on: Tyrosine-protein kinase ABL1 (Homo sapiens), P00519 [M351T]; test: as §1; details: at 1 µM
[11] = tested on: Tyrosine-protein kinase ABL1 (Homo sapiens), P00519 [Q252H]; test: as §1; details: at 1 µM
[12] = tested on: Tyrosine-protein kinase ABL1 (Homo sapiens), P00519 [T315I]; test: as §1; details: at 1 µM
[13] = tested on: Tyrosine-protein kinase ABL1 (Homo sapiens), P00519 [Y253F]; test: as §1; details: at 1 µM
[14] = molecular target: Tyrosine-protein kinase ABL1 (Homo sapiens, UniProt P00519); test: as §1; details: at 1 µM
[15] = molecular target: Serine/threonine-protein kinase RIO2 (Homo sapiens) (UniProt Q9BVS4); test: Selectivity interaction (KinomeScan (DiscoverX)) EUB0001550a RIOK2; details: at 1 µM
[16] = molecular target: Angiopoietin-1 receptor (Homo sapiens) (UniProt Q02763); test: Selectivity interaction (Upstate Kinase Profiler service (Millipore)) EUB0000056c TEK; details: at 1 µM
[17] = molecular target: Receptor-type tyrosine-protein kinase FLT3 (Homo sapiens) (UniProt P36888); test: Selectivity interaction (ProQinase) EUB0000171b FLT3; details: at 5 µM
[18] = molecular target: Mitogen-activated protein kinase kinase kinase 4 (Homo sapiens) (UniProt Q9Y6R4); test: Selectivity interaction (ActivX KiNativ screen (kinase selectivity in THP-1 cell lysates)) EUB0000639a MAP3K4; format: subcellular; details: lysate
Mitogen-activated protein kinase kinase kinase 4 (Homo sapiens), sequence (Q9Y6R4 whole entry): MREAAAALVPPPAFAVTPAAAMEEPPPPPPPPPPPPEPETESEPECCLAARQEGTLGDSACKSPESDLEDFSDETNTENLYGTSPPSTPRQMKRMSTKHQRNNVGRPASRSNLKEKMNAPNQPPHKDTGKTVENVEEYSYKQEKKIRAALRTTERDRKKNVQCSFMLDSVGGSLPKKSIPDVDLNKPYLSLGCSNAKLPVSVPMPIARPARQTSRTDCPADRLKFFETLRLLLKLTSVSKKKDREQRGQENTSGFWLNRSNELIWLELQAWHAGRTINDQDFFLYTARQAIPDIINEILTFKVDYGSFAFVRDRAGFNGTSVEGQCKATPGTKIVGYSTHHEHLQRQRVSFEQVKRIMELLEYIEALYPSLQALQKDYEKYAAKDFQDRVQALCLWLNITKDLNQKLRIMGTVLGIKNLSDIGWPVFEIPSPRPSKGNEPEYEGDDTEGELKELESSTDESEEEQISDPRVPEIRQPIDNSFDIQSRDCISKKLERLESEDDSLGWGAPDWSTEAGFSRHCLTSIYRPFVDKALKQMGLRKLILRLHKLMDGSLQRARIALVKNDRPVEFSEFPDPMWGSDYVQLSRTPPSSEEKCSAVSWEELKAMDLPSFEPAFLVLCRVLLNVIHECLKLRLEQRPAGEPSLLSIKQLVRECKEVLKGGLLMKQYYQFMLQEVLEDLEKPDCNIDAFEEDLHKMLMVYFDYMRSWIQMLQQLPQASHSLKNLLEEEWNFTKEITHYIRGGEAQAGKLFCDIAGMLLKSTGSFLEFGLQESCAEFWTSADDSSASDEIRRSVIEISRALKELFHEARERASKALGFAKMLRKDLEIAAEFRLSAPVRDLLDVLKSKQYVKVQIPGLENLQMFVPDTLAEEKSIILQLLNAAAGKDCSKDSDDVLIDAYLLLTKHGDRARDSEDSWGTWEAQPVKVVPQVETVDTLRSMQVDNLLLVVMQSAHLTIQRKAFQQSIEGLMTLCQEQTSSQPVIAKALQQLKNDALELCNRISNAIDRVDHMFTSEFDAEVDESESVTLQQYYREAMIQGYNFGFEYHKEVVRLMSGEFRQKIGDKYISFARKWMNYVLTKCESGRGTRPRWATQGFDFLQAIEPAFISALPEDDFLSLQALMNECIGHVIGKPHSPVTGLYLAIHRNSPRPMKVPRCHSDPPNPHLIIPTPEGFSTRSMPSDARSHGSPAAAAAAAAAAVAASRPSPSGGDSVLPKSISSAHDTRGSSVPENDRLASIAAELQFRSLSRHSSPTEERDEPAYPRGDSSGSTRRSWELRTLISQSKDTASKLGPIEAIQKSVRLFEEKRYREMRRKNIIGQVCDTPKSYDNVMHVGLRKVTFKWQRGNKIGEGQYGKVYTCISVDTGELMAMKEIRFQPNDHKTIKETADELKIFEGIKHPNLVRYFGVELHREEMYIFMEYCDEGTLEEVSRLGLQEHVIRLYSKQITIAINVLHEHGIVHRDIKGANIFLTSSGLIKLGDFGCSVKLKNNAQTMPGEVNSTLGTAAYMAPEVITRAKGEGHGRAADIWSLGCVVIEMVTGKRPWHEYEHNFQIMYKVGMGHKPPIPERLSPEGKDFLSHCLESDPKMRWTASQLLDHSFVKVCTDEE

Melanocortin receptor 4 (Homo sapiens), sequence (P32245 whole entry): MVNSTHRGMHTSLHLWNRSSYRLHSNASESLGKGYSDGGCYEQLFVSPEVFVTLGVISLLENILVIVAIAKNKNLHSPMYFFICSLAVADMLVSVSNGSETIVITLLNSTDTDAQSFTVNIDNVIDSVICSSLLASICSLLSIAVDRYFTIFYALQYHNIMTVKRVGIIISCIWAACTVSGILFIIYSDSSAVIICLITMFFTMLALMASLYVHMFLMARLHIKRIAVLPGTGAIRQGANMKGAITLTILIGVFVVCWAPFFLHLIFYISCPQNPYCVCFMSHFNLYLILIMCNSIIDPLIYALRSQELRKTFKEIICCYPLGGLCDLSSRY
Tyrosine-protein kinase FRK (Homo sapiens), sequence (P42685 whole entry): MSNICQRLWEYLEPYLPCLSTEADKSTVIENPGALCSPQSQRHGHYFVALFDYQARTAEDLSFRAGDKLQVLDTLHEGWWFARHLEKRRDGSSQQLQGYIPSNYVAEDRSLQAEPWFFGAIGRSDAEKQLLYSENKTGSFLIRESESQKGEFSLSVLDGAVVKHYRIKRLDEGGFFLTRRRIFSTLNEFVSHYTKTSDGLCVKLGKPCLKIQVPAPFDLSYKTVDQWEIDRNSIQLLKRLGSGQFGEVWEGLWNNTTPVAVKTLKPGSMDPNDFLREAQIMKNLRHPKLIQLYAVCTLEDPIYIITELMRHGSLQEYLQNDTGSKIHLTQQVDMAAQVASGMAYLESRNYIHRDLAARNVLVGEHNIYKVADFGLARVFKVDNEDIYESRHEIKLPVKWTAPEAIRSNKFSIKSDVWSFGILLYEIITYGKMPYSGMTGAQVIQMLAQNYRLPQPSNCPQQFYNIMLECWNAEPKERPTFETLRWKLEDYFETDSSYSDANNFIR
Mitogen-activated protein kinase kinase kinase 21 (Homo sapiens), sequence (Q5TCX8 whole entry): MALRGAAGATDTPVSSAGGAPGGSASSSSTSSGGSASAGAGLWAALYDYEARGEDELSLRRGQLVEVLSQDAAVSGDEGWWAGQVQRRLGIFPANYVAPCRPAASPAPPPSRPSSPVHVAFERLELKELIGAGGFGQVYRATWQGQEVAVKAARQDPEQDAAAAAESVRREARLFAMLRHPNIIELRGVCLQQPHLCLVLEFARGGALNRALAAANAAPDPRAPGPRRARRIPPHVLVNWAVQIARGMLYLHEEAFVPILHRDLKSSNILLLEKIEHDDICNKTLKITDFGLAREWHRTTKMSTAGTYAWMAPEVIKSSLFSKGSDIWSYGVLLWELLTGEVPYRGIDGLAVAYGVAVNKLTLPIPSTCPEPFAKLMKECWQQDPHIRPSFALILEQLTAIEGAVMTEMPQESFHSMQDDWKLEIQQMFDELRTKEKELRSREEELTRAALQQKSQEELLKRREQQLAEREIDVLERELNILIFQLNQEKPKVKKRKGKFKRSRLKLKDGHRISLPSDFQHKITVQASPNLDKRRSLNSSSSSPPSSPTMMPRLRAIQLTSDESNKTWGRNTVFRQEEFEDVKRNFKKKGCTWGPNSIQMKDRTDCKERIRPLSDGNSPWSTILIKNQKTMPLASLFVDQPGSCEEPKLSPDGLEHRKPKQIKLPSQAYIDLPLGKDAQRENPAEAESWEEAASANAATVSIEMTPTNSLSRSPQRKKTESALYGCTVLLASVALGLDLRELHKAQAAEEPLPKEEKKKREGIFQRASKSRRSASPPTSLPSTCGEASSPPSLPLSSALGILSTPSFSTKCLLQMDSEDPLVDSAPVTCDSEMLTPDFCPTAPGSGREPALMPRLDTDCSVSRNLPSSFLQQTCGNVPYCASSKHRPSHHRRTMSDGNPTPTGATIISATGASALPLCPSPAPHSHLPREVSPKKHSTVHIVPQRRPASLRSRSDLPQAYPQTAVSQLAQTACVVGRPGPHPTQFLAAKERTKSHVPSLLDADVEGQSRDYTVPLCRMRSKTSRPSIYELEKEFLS
Serine/threonine-protein kinase RIO2 (Homo sapiens), sequence (Q9BVS4 whole entry, looked up): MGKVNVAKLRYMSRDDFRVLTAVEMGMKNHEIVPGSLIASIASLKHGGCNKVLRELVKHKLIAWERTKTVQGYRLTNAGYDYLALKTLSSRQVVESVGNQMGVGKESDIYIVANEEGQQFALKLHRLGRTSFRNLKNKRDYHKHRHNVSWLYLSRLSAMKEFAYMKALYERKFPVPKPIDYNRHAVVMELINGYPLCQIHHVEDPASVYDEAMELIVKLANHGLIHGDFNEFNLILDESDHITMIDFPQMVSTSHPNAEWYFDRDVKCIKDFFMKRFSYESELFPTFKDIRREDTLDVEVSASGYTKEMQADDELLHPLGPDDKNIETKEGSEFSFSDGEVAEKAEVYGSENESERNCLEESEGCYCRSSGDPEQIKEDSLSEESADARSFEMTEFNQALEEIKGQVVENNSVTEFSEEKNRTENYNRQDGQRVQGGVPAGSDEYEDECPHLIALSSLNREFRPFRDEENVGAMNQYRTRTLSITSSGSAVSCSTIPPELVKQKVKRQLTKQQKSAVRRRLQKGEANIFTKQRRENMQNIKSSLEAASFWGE
Receptor-type tyrosine-protein kinase FLT3 (Homo sapiens), sequence (P36888 whole entry): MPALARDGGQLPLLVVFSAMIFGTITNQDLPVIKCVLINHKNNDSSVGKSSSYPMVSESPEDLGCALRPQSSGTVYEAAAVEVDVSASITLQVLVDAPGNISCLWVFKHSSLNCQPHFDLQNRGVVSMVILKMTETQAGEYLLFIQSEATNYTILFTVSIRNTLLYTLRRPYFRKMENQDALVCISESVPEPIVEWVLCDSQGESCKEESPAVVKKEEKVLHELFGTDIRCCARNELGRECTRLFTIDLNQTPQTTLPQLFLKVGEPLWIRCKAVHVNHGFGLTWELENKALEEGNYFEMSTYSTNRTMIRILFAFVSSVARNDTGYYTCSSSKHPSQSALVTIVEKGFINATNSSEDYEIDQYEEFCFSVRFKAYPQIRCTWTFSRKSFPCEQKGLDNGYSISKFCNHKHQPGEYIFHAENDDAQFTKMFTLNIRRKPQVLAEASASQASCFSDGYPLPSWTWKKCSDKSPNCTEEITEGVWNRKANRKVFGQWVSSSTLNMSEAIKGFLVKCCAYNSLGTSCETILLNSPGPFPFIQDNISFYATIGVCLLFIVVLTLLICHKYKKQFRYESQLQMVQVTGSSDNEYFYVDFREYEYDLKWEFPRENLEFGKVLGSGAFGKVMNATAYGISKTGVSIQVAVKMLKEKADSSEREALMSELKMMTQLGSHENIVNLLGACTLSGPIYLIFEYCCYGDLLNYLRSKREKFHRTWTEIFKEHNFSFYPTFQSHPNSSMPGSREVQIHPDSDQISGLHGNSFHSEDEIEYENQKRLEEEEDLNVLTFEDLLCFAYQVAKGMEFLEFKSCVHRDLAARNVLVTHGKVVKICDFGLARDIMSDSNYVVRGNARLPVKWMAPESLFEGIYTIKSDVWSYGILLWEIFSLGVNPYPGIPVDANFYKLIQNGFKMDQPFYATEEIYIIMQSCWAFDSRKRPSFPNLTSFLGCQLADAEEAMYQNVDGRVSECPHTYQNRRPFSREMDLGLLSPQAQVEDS

Molecule `C=CC(=O)Nc1ccc(C(=O)Nc2[nH]nc3c2CN(C(=O)N[C@H](CN(C)C)c2ccccc2)C3(C)C)cc1` has a % of engagement [1] of -4.1%.
With `COCC(=O)NC/C=C/c1ccc2ncnc(Nc3ccc(Oc4ccc(C)nc4)c(C)c3)c2c1` [CP-724714] the % of control [2] was 100%.
Work on `Nc1cnc(N2CCc3cc(S(=O)(=O)Nc4c(F)cc(Cl)cc4F)cc(N4CCCC4=O)c32)nc1` [TP-020n] yielded a % of control [3] of 62%.
For `Cc1cc([C@@H](C)Nc2ccccc2C(=O)O)c2nc(N3CCOCC3)cc(=O)n2c1` [AZD-6482], the % of control [4] was 94%.
For `CC(=O)c1cc(-c2ccccc2OCC2CC2)c2ncccn12`, the % of control [5] was 90%.
`COc1cc(Nc2nc(C)cc(-c3cnn4nc(OC)ccc34)n2)cc(C(F)(F)F)c1` gave a % of control [6] of 86%, a % of control [7] of 97% and a % of control [8] of 92%. For the same molecule, the % of control [9] was 64%, the % of control [10] was 99% and the % of control [11] was 68%. It also gave a % of control [12] of 75%, a % of control [13] of 70% and a % of control [14] of 63%.
With `CN(C)CC#Cc1ccc2[nH]c3c(c2c1)-c1nc(N)ncc1CCC3` the % of control [15] was 32%.
Work on `Cc1ccc(-c2ccc3c(ccc4sc5c(c43)NC[C@@H](C)NC5=O)n2)cn1` yielded a % of inhibition [16] of -31%.
`C=CC(=O)Nc1cccc(C(=O)Nc2ccc(Nc3cc(-c4[nH]c(SC)nc4C)ccn3)cc2)c1` gave a % of control [17] of 62%.
Work on `CC[C@@H]1[C@H](F)C(=O)N[C@@H]1COc1nccc2cc(C(N)=O)c(OC)cc12` [ZIMLOVISERTIB] yielded a % of inhibition ([18]; at 0.01 µM) of 18.5%, a % of inhibition ([18]; at 0.04 µM) of -5.7% and a % of inhibition ([18]; at 0.2 µM) of -1.4%. For the same molecule, the % of inhibition ([18]; at 1 µM) was -23% and the % of inhibition ([18]; at 5 µM) was 6.4%.
